From patent US10576078B2 (Council of Scientific & Industrial Research, priority 2017, dated 2020)

What was measured:
[1] = test system: K562 cells; test: TUNEL assay in K562 cells; format: cell-based, Human; conditions: CFZ 5 μM, 48 h
Method: K562 cells were treated with CFZ for 48 h and TUNEL staining was performed followed by fluorescent microscopy. Images are representative of two independent experiments (8 fields per group).

[2] = test system: aldehyde dehydrogenase (ALDH) activity in CP-CML cells; test: Aldefluor assay of aldehyde dehydrogenase activity; format: cell-based, Human; conditions: imatinib-resistant CP-CML cells, n=6, 5 μM, 48 h
Method: CP-CML cells from imatinib-resistant patients (n=6) were treated with CFZ or salinomycin (5 μM; 48 h) and aldehyde dehydrogenase activity in these cells were assessed using an ALDEFLUOR kit (Stemcell technologies). ***p<0.0001.
CP-CML cells isolated from imatinib-resistant patients were treated with vehicle (V; 0.1% DMSO), CFZ or salinomycin (both 5 μM) for 48 h (FIG. 2C). Aldehyde dehydrogenase activity in CP-CML cells was assessed using an Aldefluor kit ([…] technologies) by flow cytometry (FACSCalibur).

[3] = test system: CP-CML cells; test: Megakaryocytic surface markers in CP-CML cells by flow cytometry; format: cell-based, Human; conditions: 2.5 μM CFZ, 72 h
Method: FIG. 3D-3E in particular show CFZ induces megakaryocytic surface markers CD61 and CD41 in CP-CML cells. CD61 (D) and CD41 (E) surface expression in CP-CML (gated monocytes) cells after treatment with 2.5 μM CFZ for 72 h were assessed by flowcytometry. *p<0.05, ***p<0.0001.
(§1) Differentiation analyses by flow cytometry: K562 (FIG. 3B-C) or primary CP-CML cells (FIG. 3D-E) were treated with vehicle, CFZ and PMA as indicated in the respective figures and figure descriptions for 72 hrs. Cells were then harvested, washed, and centrifuged, resuspended in 100 μl PBS and were stained with CD41-FITC or CD61-PE antibodies for 30 min at room temperature (in dark). After incubation, the cells were washed and resuspended in 300 μl PBS and were analyzed on a FACSCalibur flow cytometer.

[4] = test system: CD34+ cells from imatinib-resistant patients (quiescent LSCs); test: CFSE assay of quiescent LSCs; format: cell-based, Human
Method: Cells were gated depending on CFSE intensity. […] Apoptosis in these cells was determined by annexin V staining.
For assessing apoptosis in quiescent LSCs, purified CD34^+ cells were first stained with carboxyfluorescein succinimidyl ester (CFSE; Invitrogen) for 30 min. Cells were then washed and resuspended in SFM medium with 5 growth factors and were kept at 37° C. overnight. Next day, cells were treated as indicated in SFM medium with growth factors and were maintained further for 4 days with supplementation of the drugs every 48 h (drug concentrations in FIG. 5 and its description). Cells were then harvested, washed, and were labeled with CD34-PE and Annexin-APC antibodies and then gated into non-dividing cells (CD34^+CFSE^bright) and dividing cell (CD34^+CFSE^dim) population based on CFSE fluorescence intensity. […] Number of cells or apoptosis was determined by flowcytometry.

[5] = rat, in vivo, po
From the text: (§2) Sprague-Dawley rats (n=6 per group) were divided into 3 groups. […] Plasma was separated and processed for analysis by LC-MS/MS. For pharmacokinetic and statistical analysis, plasma concentration versus time data were plotted and analyzed by non-compartmental analysis method using WinNonlin (Pharsight, Mountain View, Calif.) software.
as §2, with “For this SD” for “Sprague-Dawley”

[6] = test system: K562 cells; test: Megakaryocytic differentiation in K562 cells (May-Grünwald-Giemsa staining, CD61/CD41 flow cytometry); format: cell-based, Human
Method: K562 cells were treated with CFZ for 120 h and May-Grünwald-Giemsa staining followed by light microscopy was used to assess cellular morphology. […] PMA was used as appositive control. Representative photomicrographs from two independent experiments (8 fields per treatment group) are shown.
FIG. 3B-3C in particular show CFZ induces megakaryocytic surface markers CD61 (early) and CD41 (late) in K562 cells. K562 cells were treated as indicated for 72 h (Phorbol myristate acetate (PMA) was used as positive control) and then were stained with IgG isotype control or CD61 (B) & CD41 (C) IgG antibodies and were analyzed by flowcytometry (n=3). ***p<0.0001. PMA was used as a positive control.
May-Grünwald Giemsa Staining: To assess the changes in nuclear morphology, cells treated with vehicle (0.1% DMSO), CFZ (indicated concentrations in FIG. 3A) or PMA (positive control; 10 ng/ml) for 120 h (FIG. 3A). Cells were then washed with phosphate buffer saline (PBS) and were attached to glass slides by cytospin. These slides were stained with Giemsa and May-Grünwald solution (Sigma) as per manufacturer's instruction. Cells were then visualized by microscopy.
as §1

[7] = test system: CD34+ cells from healthy donors
Method: Determination of CFZ's Effect on Cell Viability and Apoptosis • a. CellTitre-Glo assay: Cell viability (in FIG. 1B, FIG. 4 and FIG. 6A) assays was performed using the ATP-based CellTiter-Glo Luminescent cell viability assay (Promega Madison, Wis.) as per the manufacturer's instruction. Briefly, (1.25×10^5) K562 cells/ml (FIG. 1B and FIG. 4) or CD34+ cells from healthy donors (FIG. 6A) were cultured in 48-well plates and were treated as indicated in the respective figures and figure descriptions (vehicle; V=0.1% DMSO). Cells were then incubated with CellTitre-Glo reagent for 15 min. Luminescence was recorded in a GloMax-96 Microplate luminometer (Promega, Madison, Wis.) with an integration time of 1 s per well. • b. Analysis of apoptosis by Annexin V staining and flow cytometry • K562 (FIG. 1C-D) and primary CP-CML cells (FIG. 1H-I) were cultured in 6 well plates (2×10^5 cells/well) and were treated with indicated concentrations of compounds as described in respective figures and their descriptions. Cells were then harvested and washed, and incubated in binding buffer (Annexin V Binding Buffer, BD Pharmingen) with 0.3% Annexin V-FITC and PI for 15 min at room temperature in dark. Apoptosis was measured by FACSCalibur flow cytometer (Becton Dickenson, San Jose, Calif.). • c. TUNEL assay • Pro-apoptotic potential was analysed using a Fluorometric APO-BrdU™ TUNEL Assay Kit (Invitrogen) according to the manufacturer's protocol (FIG. 1F). Cells were treated with Vehicle (0.1% DMSO) or CFZ (5 μM) for 48 h. Cells were then fixed in formaldehyde (4%) for 25 min at 4° C., permeabilized with 0.2% Triton-X100 and washed with PBS. Cells were then incubated in Terminal Deoxynucleotidyl Transferase (TdT) reaction buffer without TdT enzyme for 7 minutes at room temperature and then in TdT buffer with TdT enzyme at 37° C. in dark. After termination of TdT reaction, cells were stained with 5 μg/ml of PI for 15 min in dark followed by washing and analysed with fluorescence microscopy.

Structure (SMILES): CC(C)/N=c1\cc2n(-c3ccc(Cl)cc3)c3ccccc3nc-2cc1Nc1ccc(Cl)cc1 [CFZ, Clofazimine]
- apoptosis as determined by TUNEL assay [1]: induces apoptosis
- aldehyde dehydrogenase (ALDH) activity [2]: remarkably decreased
- megakaryocytic surface marker CD41 [3]: increased
- megakaryocytic surface marker CD61 [3]: increased
- apoptosis in CFSE-bright cells ([4]; 96 h, annexin V): robust apoptosis
- apoptosis in CFSE-dim cells ([4]; 96 h, annexin V): robust apoptosis
- CFSE-dim (dividing cell) population ([4]; n=3, 96 h): increased
- number of CFSE-bright (non-dividing) cells ([4]; n=3, 96 h): drastically reduced
- Tmax in combination group compared to individual groups [5]: no change
- clearance in combination group compared to individual groups [5]: lower
- megakaryocytic differentiation phenotype ([6]; 1 μM, 120 h, May-Grünwald-Giemsa staining): induced
- megakaryocytic surface marker CD41 ([6]; 72 h): increased
- megakaryocytic surface marker CD61 ([6]; 72 h): increased
- apoptosis in CD34+ cells from healthy donor by Annexin V [7]: no apoptosis
- viability of CD34+ hematopoietic progenitor cells from healthy controls [7]: No loss of survival
